# Literature values as cited in publication PMC4741275 (Analytical Chemistry, 2016).
# Tested on: lysosomes
row,SMILES,enrichment in lysosomes
1,Cc1ccc(NC(=O)c2ccc(CN3CCN(C)CC3)cc2)cc1Nc1nccc(-c2cccnc2)n1 [imatinib],over 1000 fold
2,Cc1cn(-c2cc(NC(=O)c3ccc(C)c(Nc4nccc(-c5cccnc5)n4)c3)cc(C(F)(F)F)c2)cn1 [nilotinib],over 1000 fold
